This experiment deals with Jurkat human T cells viability, luminescence (cytotoxicity counterscreen). Description: viability loss in human Jurkat cells – cell-based, luminescence, cytotoxicity control, dose response (AID 1117277).

Calls of active or inactive are those of the source. The rule behind the calls is not given here.

For `O=C(C[N+]12CCC(CC1)C(OC(=O)c1ccccc1)C2)c1ccc([N+](=O)[O-])cc1` (stereo unspecified), the IC50 was > 83.3 µM (inactive).

For the origin of these results see PubChem BioAssay AID1117277 (The Scripps Research Institute Molecular Screening Center, 2014).
